In brackets after ≈: the same amount, converted by molar mass. Activity calls are given as the source filed them. The calls are words filed in the database; no cut-off is given here.
Tests used:
[1] = target: T1, Disintegrin and metalloproteinase domain-containing protein 9 (Homo sapiens, UniProt Q13443); assay: Inhibition of ADAM9 (unknown origin)
T1 sequence (Q13443 whole entry): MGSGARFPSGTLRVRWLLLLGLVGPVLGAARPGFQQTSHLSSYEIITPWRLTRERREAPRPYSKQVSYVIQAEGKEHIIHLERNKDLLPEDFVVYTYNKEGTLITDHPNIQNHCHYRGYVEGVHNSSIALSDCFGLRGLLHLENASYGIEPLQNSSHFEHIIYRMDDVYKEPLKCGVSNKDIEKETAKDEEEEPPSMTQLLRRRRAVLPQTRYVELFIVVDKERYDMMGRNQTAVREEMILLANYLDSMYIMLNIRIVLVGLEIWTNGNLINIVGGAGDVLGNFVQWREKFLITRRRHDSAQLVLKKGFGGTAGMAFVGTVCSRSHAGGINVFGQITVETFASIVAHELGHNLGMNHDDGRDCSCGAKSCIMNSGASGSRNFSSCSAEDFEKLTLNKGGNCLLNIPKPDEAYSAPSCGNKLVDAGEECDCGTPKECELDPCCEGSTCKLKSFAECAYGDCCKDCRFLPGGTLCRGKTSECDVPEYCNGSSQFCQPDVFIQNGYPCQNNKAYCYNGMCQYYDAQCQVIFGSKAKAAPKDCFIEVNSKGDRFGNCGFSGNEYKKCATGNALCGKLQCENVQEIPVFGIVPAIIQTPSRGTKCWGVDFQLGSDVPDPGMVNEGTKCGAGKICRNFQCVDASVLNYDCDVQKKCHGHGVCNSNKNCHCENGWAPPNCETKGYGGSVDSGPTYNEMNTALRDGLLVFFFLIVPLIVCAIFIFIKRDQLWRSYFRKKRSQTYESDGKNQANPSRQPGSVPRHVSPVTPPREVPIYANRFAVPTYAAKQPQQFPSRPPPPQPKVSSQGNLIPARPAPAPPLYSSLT

[2] = Solubility of the compound in propylene glycol/ethanol96 at 30 mg/ml after 24 hrs by UV-spectrometric analysis; type: physicochemical; details: propylene glycol/ethanol96
[3] = Intrinsic clearance in human hepatocytes assessed per million cells at 1 uM by LC-MS/MS analysis; type: ADME, cell-based, Hepatocyte; details: human hepatocytes, read-out: CLH
[4] = target: Disintegrin and metalloproteinase domain-containing protein 17 (Homo sapiens, UniProt P78536); assay: Inhibition of TACE in NHEK assessed as reduction in LPS/TPA-stimulated TNFalpha production preincubated for 1 hr followed by LPS/TPA stimulation for 24 hrs by HTRF assay
Mus musculus [5] = assay: Antiinflammatory activity in topically applied oxazolone-induced chronic skin inflammation hairless SKH1 mouse model assessed as decrease in TNFalpha secretion applied topically for 10 days in combination with oxazolone; type: functional, organism-based
Mus musculus [6] = assay: Antiinflammatory activity in topically applied oxazolone-induced chronic skin inflammation hairless SKH1 mouse model assessed as decrease in skin lesions applied topically for 10 days in combination with oxazolone; type: functional, organism-based
Mus musculus [7] = assay: Antiinflammatory activity in topically applied oxazolone-induced chronic skin inflammation hairless SKH1 mouse model assessed as decrease in epidermis thickening applied topically for 10 days in combination with oxazolone; type: functional, organism-based

Disintegrin and metalloproteinase domain-containing protein 17, sequence (P78536 whole entry, the tested form may be a part): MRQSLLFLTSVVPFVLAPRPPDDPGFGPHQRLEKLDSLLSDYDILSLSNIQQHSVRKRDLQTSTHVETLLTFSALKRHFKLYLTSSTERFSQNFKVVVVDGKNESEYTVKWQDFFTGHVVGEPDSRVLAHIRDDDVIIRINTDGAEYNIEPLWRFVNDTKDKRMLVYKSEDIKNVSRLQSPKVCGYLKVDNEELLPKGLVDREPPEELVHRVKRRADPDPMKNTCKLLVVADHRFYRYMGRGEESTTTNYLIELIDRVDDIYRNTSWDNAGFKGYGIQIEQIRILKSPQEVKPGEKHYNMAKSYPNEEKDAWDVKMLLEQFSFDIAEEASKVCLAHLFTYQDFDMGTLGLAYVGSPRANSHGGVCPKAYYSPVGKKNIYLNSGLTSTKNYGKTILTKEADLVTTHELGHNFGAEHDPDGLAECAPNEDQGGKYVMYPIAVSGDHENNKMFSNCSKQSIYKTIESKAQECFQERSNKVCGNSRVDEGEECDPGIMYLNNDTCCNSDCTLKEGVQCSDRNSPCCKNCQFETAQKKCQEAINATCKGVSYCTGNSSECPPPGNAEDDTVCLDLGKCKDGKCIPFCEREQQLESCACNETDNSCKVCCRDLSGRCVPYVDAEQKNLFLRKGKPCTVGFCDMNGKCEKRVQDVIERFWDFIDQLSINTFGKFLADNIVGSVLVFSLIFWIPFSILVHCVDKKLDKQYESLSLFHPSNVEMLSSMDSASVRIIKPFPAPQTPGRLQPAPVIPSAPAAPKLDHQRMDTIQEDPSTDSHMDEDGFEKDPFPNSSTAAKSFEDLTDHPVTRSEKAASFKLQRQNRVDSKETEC

IC50 [1] [nM] | solubility at 24 h [2] [mM] | hepatocyte CLint at 1 µM [3] [µL/min/1e6 cells] | IC50 [4] [nM] | Compound | Activity (Mus musculus [5]) | Activity (Mus musculus [6]) | Activity (Mus musculus [7])
480 | 45 (≈ 24.3 mg/mL) | 14 | 20 | Cc1cc(COc2ccc(S(=O)(=O)N(C)C3(C(=O)NO)CN(C(=O)CC(C)C)C3)cc2)c2ccccc2n1 |  |  | 
90 | 56 to 57 (≈ 29.5 to 30 mg/mL) | 8 | 3 | Cc1cc(COc2ccc(S(=O)(=O)N(C)C3(C(=O)NO)CN(C(=O)C(C)C)C3)cc2)c2ccccc2n1 | Active | Dose-dependent effect | Active

— ChEMBL document CHEMBL4184149, “Discovery and process development of a novel TACE inhibitor for the topical treatment of psoriasis” (Bioorg Med Chem, 2018)
